Experimental findings from ChEMBL document CHEMBL6092178, “Discovery of a novel KV7.2/7.3 channels agonist for the treatment of neuropathic pain” (Eur J Med Chem, 2024) are described below.

Series [1] in a line: Hepatotoxicity in rat assessed as change in serum total bilirubin (TBIL) level at 10 to 40 mg/kg, IG administered for 28 days and measured after 14 days. Particulars: in vivo, po, 672 h, dose 10-40 mg/kg, time 28 day. The series is classed as toxicity, organism-based.
Series [2] can be described thus: Hepatotoxicity in rat assessed as increase in serum TBIL level at 40 mg/kg, IG administered for 28 days and measured after 14 days. The series is classed as toxicity, organism-based. Particulars: in vivo, po, 672 h, time 28 day.
The target in series [3] is Voltage-gated potassium channel, KQT; KCNQ2(Kv7.2)/KCNQ3(Kv7.3) (Homo sapiens, UniProt O43525+O43526). The series is described as follows: Agonist activity at human KCNQ2/3 transfected in human HEK293 cells incubated for 30 mins by fluorimetric assay. Format: cell-based.
The nature of series [4]: Hepatotoxicity in rat assessed as change in serum AST level at 10 to 40 mg/kg, IG administered for 28 days and measured after 14 days. Format: toxicity, organism-based. The following applies: in vivo, po, 672 h, dose 10-40 mg/kg, time 28 day.
A short description of series [5]: Hepatotoxicity in rat assessed as change in serum ALP level at 10 to 40 mg/kg, IG administered for 28 days and measured after 14 days. The series is classed as toxicity, organism-based. Particulars: in vivo, po, 672 h, dose 10-40 mg/kg, time 28 day.
Series [6] is described as follows: Hepatotoxicity in rat assessed as increase in serum ALT level at 10 to 20 mg/kg, IG administered for 28 days and measured after 14 days relative to control. The series is classed as toxicity, organism-based. The following applies: in vivo, po, 672 h, dose 10-20 mg/kg, time 28 day.
Series [7] is described as follows: Hepatotoxicity in rat assessed as increase in serum ALT level at 40 mg/kg, IG administered for 28 days and measured after 14 days. Format: toxicity, organism-based. Particulars: in vivo, po, 672 h, time 28 day.
For series [8], the system named is Rattus norvegicus. The experiment in a line: Antinociceptive activity against formalin-induced pain in male Sprague-Dawley rat assessed as reduction in nociceptive response at 40 mg/kg, IG pretreated for 5 mins followed by formalin challenge and measured for 10 to 60 mins (phase II). The series is classed as functional, organism-based. Particulars: time 15-65 min.

Series [9] concerns Rattus norvegicus. The experiment in a line: Antinociceptive activity against formalin-induced pain in male Sprague-Dawley rat assessed as reduction in nociceptive response at 40 mg/kg, IG pretreated for 5 mins followed by formalin challenge and measured for first 9 mins (phase I). The series is classed as functional, organism-based. The following applies: time 14.0 min.
Another series relates to Mus musculus. The experiment in a line: Induction of motor coordination impairment in mouse at 20 mg/kg, IG measured upto 120 mins by rotarod method. The series is classed as functional, organism-based.
Series [10] relates to Rattus norvegicus. The series is described as follows: Antiallodynic activity in spinal nerve ligation-induced neuropathic pain male Sprague-Dawley rat model assessed as mechanical withdrawal threshold at 40 mg/kg, IG pretreated with compound for 1 hr and measured on day 15 after surgery. The series is classed as functional, organism-based. Particulars: time 15.0 day.

Calls of active or inactive are those of the source.

Sequence of Voltage-gated potassium channel, KQT; KCNQ2(Kv7.2)/KCNQ3(Kv7.3) (O43526 whole entry): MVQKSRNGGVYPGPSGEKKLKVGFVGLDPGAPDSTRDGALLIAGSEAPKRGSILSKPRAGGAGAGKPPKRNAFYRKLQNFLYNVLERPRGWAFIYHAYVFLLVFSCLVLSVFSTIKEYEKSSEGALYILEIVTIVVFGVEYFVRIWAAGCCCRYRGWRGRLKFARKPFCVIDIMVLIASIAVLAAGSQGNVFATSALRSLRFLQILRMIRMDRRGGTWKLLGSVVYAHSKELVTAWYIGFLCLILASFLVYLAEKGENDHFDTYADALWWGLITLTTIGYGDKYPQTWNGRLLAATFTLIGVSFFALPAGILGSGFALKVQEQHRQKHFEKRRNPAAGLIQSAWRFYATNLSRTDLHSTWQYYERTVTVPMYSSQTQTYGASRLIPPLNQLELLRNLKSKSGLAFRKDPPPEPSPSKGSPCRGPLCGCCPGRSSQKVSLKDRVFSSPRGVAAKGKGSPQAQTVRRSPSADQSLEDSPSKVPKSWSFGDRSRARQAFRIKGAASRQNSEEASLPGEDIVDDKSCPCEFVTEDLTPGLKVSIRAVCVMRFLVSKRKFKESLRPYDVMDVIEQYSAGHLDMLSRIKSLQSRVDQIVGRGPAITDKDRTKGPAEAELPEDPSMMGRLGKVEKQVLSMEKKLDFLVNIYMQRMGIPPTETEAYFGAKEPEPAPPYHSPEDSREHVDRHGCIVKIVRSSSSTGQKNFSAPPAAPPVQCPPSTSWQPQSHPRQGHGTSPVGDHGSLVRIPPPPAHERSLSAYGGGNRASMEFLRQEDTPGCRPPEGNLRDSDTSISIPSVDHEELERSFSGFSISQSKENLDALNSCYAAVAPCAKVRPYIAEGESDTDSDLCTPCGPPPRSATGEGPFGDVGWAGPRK
Sequence of Voltage-gated potassium channel, KQT; KCNQ2(Kv7.2)/KCNQ3(Kv7.3) (O43525 whole entry): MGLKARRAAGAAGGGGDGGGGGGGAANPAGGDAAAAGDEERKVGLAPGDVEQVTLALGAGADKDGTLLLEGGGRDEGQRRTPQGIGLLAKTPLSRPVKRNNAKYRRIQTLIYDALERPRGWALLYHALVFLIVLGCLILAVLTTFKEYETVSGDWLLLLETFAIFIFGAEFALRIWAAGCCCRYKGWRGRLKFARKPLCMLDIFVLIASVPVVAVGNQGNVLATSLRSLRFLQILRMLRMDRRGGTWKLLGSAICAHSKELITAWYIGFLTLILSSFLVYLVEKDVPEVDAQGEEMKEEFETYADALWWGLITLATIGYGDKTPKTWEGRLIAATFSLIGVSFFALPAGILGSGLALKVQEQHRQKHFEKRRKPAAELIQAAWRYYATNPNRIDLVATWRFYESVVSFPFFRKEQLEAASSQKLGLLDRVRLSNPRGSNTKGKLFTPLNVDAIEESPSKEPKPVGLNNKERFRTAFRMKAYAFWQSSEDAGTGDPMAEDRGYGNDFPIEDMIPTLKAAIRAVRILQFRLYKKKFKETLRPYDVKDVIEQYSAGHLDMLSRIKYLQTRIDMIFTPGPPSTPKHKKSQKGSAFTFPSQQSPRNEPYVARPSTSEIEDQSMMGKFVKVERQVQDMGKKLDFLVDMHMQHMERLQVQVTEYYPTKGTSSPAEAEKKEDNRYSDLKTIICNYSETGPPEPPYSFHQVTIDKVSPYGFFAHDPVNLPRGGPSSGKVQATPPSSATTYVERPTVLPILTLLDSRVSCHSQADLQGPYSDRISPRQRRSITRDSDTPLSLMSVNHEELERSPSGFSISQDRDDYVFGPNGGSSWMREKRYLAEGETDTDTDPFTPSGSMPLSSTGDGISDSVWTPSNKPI

`CCOC(=O)Nc1ccc(NCc2ccc(F)cc2)nc1N` [FLUPIRTINE]: the Activity result in series [1] was “Non-toxic”; in series [2] it was “Toxic”; in series [4], “Non-toxic”; in series [5] it was “Non-toxic”; in [6], less than 70%; in series [7] it was “Toxic”. This molecule also registered an EC50 in series [3] of 1.9 µM.

With `Nc1ccc(OCc2ccc(F)cc2)nc1NC(=O)c1ccccc1`, in [3], the EC50 stood at 98.6 µM. Same read-out and setting: then `CC(=O)Nc1nc(OC(C)c2ccc(F)cc2)ccc1N` (centres undefined), with 18.9 µM; and `CC(=O)Nc1nc(OCc2cccc3ccccc23)ccc1N`, with 218 µM; and `CCC(=O)Nc1nc(OCc2ccc(F)cc2)ccc1N`, with 13.9 µM. In [3], `CC(=O)Nc1nc(OCc2ccncc2)ccc1N` returned an EC50 of 35.3 µM.

Molecule `Nc1ccc(OCc2ccc(F)cc2)cc1NC(=O)c1ccccc1` returned an EC50 in series [3] of 196 µM.

The molecule `CC(=O)Nc1nc(OCc2ccc3ccccc3c2)ccc1N` registered an EC50 in series [3] of 189 µM. `CC(C)C(=O)Nc1nc(OCc2ccc(F)cc2)ccc1N` came in with an EC50 in series [3] of 18.4 µM. On the same count and under the same terms, the value for `CC(=O)Nc1nc(OCc2ccc(Cl)c(Cl)c2)ccc1N` was 10.1 µM. With `CC(=O)Nc1nc(OCc2ccc(-c3ccccc3)cc2)ccc1N`, the EC50 in [3] stood at 131 µM. Consider `CC(C)C[C@H](CN)CC(=O)O`, for which the outcome in the series on Rattus norvegicus [8] and in the series with Rattus norvegicus [10] was Active. The outcome in the series on Rattus norvegicus [9] and in the series on Mus musculus was inactive. `Nc1ccc(OCc2ccc(F)cc2)nc1NC(=O)C1CCCCC1`: in [3], it took 164 µM to reach a half-maximal effect (EC50).

`CC(=O)Nc1cc(OCc2ccc(F)cc2)ccc1N` gave an EC50 in series [3] of 13.5 µM. The same measure, in the same setting: the value for `CCOC(=O)Nc1ccc(OCc2ccc(F)cc2)nc1NC(C)=O` was 6.19 µM. In turn, `CC(=O)Nc1ccc(OCc2ccc(F)cc2)nc1NC(C)=O` gave an EC50 in series [3] of 7.61 µM. Still for that read-out and setting: the value for `COc1ccc(COc2ccc(N)c(NC(C)=O)n2)cc1` was 13.5 µM. In [3], `Nc1ccc(OCc2ccc(F)cc2)cc1NC(=O)C1CC1` showed an EC50 of 30.3 µM. On to `CCOC(=O)Nc1nc(OCc2ccc(F)cc2)ccc1N`, for which, in series [3], the half-maximal effective concentration (EC50) is 12.1 µM. The molecule `CC(=O)Nc1nc(OCCc2ccc(F)cc2)ccc1N` had an EC50 in [3] of 9.39 µM.

Take `Nc1ccc(OCc2ccc(F)cc2)nc1NC(=O)C1CCCC1`: in series [3], the EC50 worked out at 131 µM.

As for `CC(=O)Nc1nc(OCc2ccc3c(c2)OCO3)ccc1N`, a half-maximal response in series [3] (EC50) required 128 µM. Still for that read-out and setting: the value for `COc1cccc(COc2ccc(N)c(NC(C)=O)n2)c1` was 30.3 µM; that for `CC(=O)Nc1nc(OCc2ccc(C(F)(F)F)cc2)ccc1N` was 8.9 µM. On the same count and under the same terms, the value for `Nc1ccc(OCc2ccc(F)cc2)nc1N1CCCC1=O` was 12.7 µM.
